Drawing on ChEMBL document CHEMBL4020759, “Sulfoximines as ATR inhibitors: Analogs of VE-821” (2017), this text covers inhibition, Activity and Ratio for three compounds.

Experiment [1] addresses Serine-protein kinase ATM (Homo sapiens) (UniProt Q13315). Kind of experiment: Inhibition of ATM in human U2OS cells assessed as reduction in etoposide-induced Chk-2 phosphorylation at Thr68 residue at 10 uM preincubated for 1 hr followed by etoposide challenge measured after 20 mins by Western blot analysis. The class given is cell-based.
The target is the same in experiment [2]. Kind of experiment: Inhibition of ATM in human U2OS cells assessed as reduction in hydroxyurea-induced H2AX phosphorylation at Ser139 residue at 3 to 10 uM preincubated for 1 hr followed by hydroxyurea challenge measured after 2 hrs by Western blot analysis. Type of experiment: cell-based. (In general: In western blotting, separated proteins are transferred to a membrane and probed.)

Another experiment deals with Ramos. In words: Induction of apoptosis in human Ramos cells assessed as increase PARP-1 cleavage at 10 uM after 48 hrs by Western blot analysis. The class given is functional, cell-based.
Experiment [3] addresses Serine/threonine-protein kinase ATR (Homo sapiens) (UniProt Q13535). Kind of experiment: Inhibition of ATR in human Ramos cells assessed as reduction in […] at 10 uM after 48 hrs by Western blot analysis. Type of experiment: cell-based.
Experiment [4] has the same target. In words: Inhibition of ATR in human U2OS cells assessed as reduction in hydroxyurea-induced Chk-1 phosphorylation at Ser345 residue by measuring ratio of GAPDH level to phosphorylated Chk-1 level at 3 uM preincubated for 1 hr followed by hydroxyurea challenge measured after 2 hrs by Western blot analysis. Type of experiment: cell-based.
The target is the same in experiment [5]. Kind of experiment: Inhibition of ATR in human U2OS cells assessed as reduction in hydroxyurea-induced Chk-1 phosphorylation at Ser345 residue by measuring ratio of GAPDH level to phosphorylated Chk-1 level at 10 uM preincubated for 1 hr followed by hydroxyurea challenge measured after 2 hrs by Western blot analysis. The class given is cell-based.
Experiment [6] shares this target. Kind of experiment: Inhibition of ATR in human U2OS cells assessed as reduction in etoposide-induced Chk-1 phosphorylation at Ser345 residue at 10 uM preincubated for 1 hr followed by etoposide challenge measured after 20 mins by Western blot analysis. Type of experiment: cell-based.
Experiment [7] has the same target. In words: Inhibition of ATR in human U2OS cells assessed as reduction in hydroxyurea-induced Chk-1 phosphorylation at Ser345 residue preincubated for 1 hr followed by hydroxyurea challenge measured after 2 hrs by Western blot analysis. The class given is cell-based.
For experiment [8] the target is unchanged. Kind of experiment: Inhibition of ATR in human U2OS cells assessed as reduction in hydroxyurea-induced H2AX phosphorylation at Ser139 residue at 3 to 10 uM preincubated for 1 hr followed by hydroxyurea challenge measured after 2 hrs by Western blot analysis. Type of experiment: cell-based.
For experiment [9], the target named is Serine-protein kinase ATM (Homo sapiens) (UniProt Q13315). Kind of experiment: Inhibition of ATM in human U2OS cells assessed as reduction in hydroxyurea-induced Chk-2 phosphorylation at Thr68 residue at 10 uM preincubated for 1 hr followed by hydroxyurea challenge measured after 1 hr by Western blot analysis. Type of experiment: cell-based.
Chain of Serine-protein kinase ATM (Homo sapiens) (Q13315 whole entry): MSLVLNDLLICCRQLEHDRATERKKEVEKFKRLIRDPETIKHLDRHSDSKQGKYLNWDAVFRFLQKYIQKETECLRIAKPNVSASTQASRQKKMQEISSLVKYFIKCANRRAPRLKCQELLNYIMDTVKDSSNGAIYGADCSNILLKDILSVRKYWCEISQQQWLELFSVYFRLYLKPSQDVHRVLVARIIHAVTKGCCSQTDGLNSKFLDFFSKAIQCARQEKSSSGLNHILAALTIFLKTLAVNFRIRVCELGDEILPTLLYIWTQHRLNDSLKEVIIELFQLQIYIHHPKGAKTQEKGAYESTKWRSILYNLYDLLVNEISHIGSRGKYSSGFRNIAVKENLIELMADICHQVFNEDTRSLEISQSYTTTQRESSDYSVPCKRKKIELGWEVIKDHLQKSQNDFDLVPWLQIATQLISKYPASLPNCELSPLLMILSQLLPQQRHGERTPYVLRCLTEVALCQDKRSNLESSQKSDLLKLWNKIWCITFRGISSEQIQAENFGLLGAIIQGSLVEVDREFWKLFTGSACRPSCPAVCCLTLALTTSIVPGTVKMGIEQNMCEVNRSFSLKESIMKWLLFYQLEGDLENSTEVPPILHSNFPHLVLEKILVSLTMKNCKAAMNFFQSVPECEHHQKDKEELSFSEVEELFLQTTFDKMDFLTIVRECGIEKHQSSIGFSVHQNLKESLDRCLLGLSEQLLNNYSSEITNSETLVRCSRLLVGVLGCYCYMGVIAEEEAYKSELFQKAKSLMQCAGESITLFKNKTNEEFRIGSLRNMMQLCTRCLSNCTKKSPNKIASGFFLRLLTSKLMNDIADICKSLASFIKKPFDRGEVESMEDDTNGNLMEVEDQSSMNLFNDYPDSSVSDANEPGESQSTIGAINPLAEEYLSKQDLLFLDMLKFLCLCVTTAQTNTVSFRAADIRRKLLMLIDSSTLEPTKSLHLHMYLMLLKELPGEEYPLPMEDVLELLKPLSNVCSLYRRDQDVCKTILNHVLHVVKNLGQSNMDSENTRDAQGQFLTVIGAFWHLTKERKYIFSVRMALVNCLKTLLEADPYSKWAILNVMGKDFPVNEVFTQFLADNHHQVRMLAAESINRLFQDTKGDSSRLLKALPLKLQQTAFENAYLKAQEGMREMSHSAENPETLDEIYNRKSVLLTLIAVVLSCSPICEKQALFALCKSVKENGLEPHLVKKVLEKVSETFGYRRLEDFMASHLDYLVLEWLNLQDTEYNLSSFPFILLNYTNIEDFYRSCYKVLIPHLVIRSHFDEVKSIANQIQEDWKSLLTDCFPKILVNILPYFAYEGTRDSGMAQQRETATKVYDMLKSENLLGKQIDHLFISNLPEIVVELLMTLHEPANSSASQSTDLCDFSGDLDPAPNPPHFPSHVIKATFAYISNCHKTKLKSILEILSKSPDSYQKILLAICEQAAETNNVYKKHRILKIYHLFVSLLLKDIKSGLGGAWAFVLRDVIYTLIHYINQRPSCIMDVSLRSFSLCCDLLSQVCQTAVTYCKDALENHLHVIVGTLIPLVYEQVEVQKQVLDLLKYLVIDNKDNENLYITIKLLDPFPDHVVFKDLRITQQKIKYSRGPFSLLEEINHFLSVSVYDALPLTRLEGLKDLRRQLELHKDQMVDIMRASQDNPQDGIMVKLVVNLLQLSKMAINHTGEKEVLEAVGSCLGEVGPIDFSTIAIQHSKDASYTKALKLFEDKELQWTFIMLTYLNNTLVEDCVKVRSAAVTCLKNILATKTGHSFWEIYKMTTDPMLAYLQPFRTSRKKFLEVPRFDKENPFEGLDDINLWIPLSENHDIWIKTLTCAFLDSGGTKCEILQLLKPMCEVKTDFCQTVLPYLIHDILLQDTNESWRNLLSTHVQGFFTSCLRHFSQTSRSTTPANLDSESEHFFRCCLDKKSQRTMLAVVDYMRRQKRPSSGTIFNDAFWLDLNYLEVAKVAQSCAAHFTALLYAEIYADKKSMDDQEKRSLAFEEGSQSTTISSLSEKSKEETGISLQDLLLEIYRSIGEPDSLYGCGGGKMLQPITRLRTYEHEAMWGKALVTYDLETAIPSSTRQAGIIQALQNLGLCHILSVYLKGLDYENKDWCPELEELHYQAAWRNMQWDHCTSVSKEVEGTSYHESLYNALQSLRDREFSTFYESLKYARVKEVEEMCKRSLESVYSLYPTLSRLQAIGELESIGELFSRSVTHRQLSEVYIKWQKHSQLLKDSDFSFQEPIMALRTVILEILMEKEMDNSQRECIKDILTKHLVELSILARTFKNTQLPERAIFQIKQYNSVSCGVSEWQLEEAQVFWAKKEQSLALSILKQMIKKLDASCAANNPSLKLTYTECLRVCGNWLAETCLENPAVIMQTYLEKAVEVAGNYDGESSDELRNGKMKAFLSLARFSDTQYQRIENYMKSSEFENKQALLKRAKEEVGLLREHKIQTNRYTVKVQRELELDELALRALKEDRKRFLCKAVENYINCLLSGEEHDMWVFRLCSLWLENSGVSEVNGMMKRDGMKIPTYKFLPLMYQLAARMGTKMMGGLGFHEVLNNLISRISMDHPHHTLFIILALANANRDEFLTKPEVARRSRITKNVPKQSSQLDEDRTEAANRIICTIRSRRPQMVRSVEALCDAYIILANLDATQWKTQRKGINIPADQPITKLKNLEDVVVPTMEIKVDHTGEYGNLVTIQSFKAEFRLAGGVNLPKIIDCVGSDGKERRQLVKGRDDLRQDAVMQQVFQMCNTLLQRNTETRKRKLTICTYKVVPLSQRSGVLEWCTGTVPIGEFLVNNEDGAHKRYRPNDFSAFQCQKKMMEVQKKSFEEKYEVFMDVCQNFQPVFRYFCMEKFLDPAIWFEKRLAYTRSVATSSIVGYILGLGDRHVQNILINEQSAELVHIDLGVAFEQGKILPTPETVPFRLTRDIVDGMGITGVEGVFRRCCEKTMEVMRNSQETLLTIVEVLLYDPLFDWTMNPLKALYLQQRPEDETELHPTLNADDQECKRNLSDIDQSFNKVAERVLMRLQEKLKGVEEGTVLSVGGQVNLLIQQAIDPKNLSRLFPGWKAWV
The target in experiment [10] is Serine/threonine-protein kinase ATR (Homo sapiens) (UniProt Q13535). Kind of experiment: Inhibition of ATR in human U2OS cells assessed as reduction in hydroxyurea-induced Chk-1 phosphorylation at Ser345 residue at 10 uM preincubated for 1 hr followed by hydroxyurea challenge measured after 1 hr by Western blot analysis. The class given is cell-based.

Active and inactive are the calls of the source. The calls are words filed in the database; no cut-off is given here.

Take `CS(=O)(=O)c1ccc(-c2cnc(N)c(C(=O)Nc3ccccc3)n2)cc1`: the inhibition entry in experiment [1] and in [2] was “inactive” each time. The result in the experiment with Ramos was Active. Moreover, the inhibition entry in [3] and in [6] was “Active” each time. The Ratio in experiment [4] stood at 13; in experiment [5], 16.3.
Turning to `CS(=N)(=O)c1ccc(-c2cnc(N)c(C(=O)Nc3ccccc3)n2)cc1` (centres undefined), the inhibition result in experiment [7] and in experiment [8] was “Dose-dependent effect” each time. For the same compound, the inhibition entry in [1], in [9] and in experiment [2] was “inactive” in each case. For the same compound, the inhibition entry in experiment [10], in experiment [3] and in [6] was “Active” throughout. In addition, in the experiment on Ramos, the outcome was Active. Also, the figures for the Ratio in [4] and in [5] were 28.3 and 21.1, respectively.
For the compound `CN=S(C)(=O)c1ccc(-c2cnc(N)c(C(=O)Nc3ccccc3)n2)cc1` (centres undefined), the inhibition result in experiment [7] and in experiment [8] was “Dose-dependent effect” in each case. The inhibition entry in [1], in [9] and in experiment [2] was “inactive” throughout. Also, the inhibition entry in experiment [10], in experiment [3] and in experiment [6] was “Active” in each case. Besides, in the experiment with Ramos, the result was Active. In addition, the values for the Ratio in [4] and in [5] were 46.1 and 36.4, respectively.
